We go through 9 compounds from patent publication US20160002248A1, “GLS1 INHIBITORS FOR TREATING DISEASE” (Board of Regents, The University of Texas System, priority 2014, published 2016).

Test [1] has as its target T1, purified recombinant human GAC (GLS1) (Homo sapiens, UniProt O94925).
T1 sequence (O94925 55-598 isoform O94925-3 limits assumed): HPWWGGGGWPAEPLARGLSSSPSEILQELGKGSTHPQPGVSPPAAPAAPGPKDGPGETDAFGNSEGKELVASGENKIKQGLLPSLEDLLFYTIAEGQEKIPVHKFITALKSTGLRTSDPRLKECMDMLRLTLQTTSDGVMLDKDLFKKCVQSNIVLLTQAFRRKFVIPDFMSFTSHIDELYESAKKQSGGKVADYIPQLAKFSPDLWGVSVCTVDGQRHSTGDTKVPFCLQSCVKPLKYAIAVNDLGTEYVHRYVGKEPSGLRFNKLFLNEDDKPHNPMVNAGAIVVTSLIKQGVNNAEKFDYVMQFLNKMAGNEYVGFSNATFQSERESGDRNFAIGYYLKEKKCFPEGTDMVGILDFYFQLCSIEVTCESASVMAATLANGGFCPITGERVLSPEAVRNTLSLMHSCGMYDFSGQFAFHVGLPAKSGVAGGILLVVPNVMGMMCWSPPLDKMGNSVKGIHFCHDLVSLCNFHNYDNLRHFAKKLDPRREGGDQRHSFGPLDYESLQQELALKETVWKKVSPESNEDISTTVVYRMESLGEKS
The test can be described thus: GLS1 Enzymatic Activity Assay (dual-coupled enzymatic assay). It counts as biochemical. Put shortly: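 Recombinant human GAC (2 nM) preincubated with 50 mM potassium phosphate, then inhibitor (10 min each, RT); 1 mM glutamine, pH 7.4 Hepes buffer, 1% DMSO. Glutamate coupled via glutamate oxidase/HRP to resorufin (Ex 530/Em 590), kinetic or 20-min endpoint; IC50 by four-parameter logistic fit.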

Another test deals with A549 cells. The test is described as follows: Proliferation Assay (A549 cell viability, Cell Titer Fluor). The following applies: Homo sapiens, 72 hours. It counts as cell-based. Put shortly: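 1000 A549 cells/well, RPMI 1640/10% dialyzed FBS, 24 h attach; compound 72 h, 0.5% DMSO, 37 °C/5% CO2; Cell Titer Fluor fluorescence; EC50 via 4-parameter logistic.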

As usually defined, the pIC50 is −log10 of the IC50, conventionally taken in molar units. The term pEC50 denotes −log10 of the EC50, conventionally taken in molar units. Low values mean a large EC50, high ones a small EC50.

pEC50, pIC50: −log10 of the molar value.

For `Cc1ccc(CNC(=O)c2cn(CCCCc3cc4cc(-c5ccccc5F)[nH]c4nn3)nn2)cn1` [Example 190, 1-{4-[6-(2-fluorophenyl)-7H-pyrrolo[2,3-c]pyridazin-3-yl]butyl}-N-[(6-methylpyridin-3-yl)methyl]-1H-1,2,3-triazole-4-carboxamide], in test [1], the pIC50 was > 7.00. Also, the pEC50 in the test on A549 cells is > 7.00.

For the compound `O=C(NCc1cc(C(F)(F)F)ccn1)c1cn(CCCCc2cc3cc(-c4ccccc4F)[nH]c3nn2)nn1` [Example 191], the pIC50 in test [1] is > 7.00. Also, the pEC50 with A549 cells was 6.30 to 7.00.

`CC(C)(C)C(=O)N1CC(c2cc3cc(CCCCn4cc(C(=O)NCc5cc(OC(F)(F)F)ccc5F)nn4)nnc3[nH]2)C1` [Example 192, 1-(4-(6-[1-(2,2-dimethylpropanoyl)azetidin-3-yl]-7H-pyrrolo[2,3-c]pyridazin-3-yl}butyl)-N-{[2-fluoro-5-(trifluoromethoxy)phenyl]methyl}-1H-1,2,3-triazole-4-carboxamide]: the pIC50 in test [1] is > 7.00. In addition, the pEC50 in the test with A549 cells was > 7.00.

Take `O=C(NCc1ccc(C(F)(F)F)cn1)c1cn(CCCCc2cc3cc(-c4ccccc4F)[nH]c3nn2)nn1` [Example 193, 1-(4-[6-(2-fluorophenyl)-7H-pyrrolo[2,3-c]pyridazin-3-yl]butyl}-N-{[5-(trifluoromethyl)pyridin-2-yl]methyl}-1H-1,2,3-triazole-4-carboxamide]: the pIC50 in test [1] was > 7.00. For the same compound, the negative logarithm of the EC50 (pEC50) in the test on A549 cells is 6.30 to 7.00.

With `CC(C)(C)OC(=O)N1CC(c2cc3cc(CCCCn4cc(C(=O)NCc5cc(C(F)(F)F)ccn5)nn4)nnc3[nH]2)C1` [Example 194, tert-butyl 3-(3-{4-[4-({[4-(trifluoromethyl)pyridin-2-yl]methyl}carbamoyl)-1H-1,2,3-triazol-1-yl]butyl}-7H-pyrrolo[2,3-c]pyridazin-6-yl)azetidine-1-carboxylate], the negative logarithm of the IC50 (pIC50) in test [1] was > 7.00. Besides, in the test with A549 cells, the pEC50 was > 7.00.

With `O=C(NCc1cccc(OC(F)(F)F)c1)c1cn(CCCCc2cc3c(C4=CCOCC4)c(C4CC4)[nH]c3nn2)nn1` [Example 195, 1-{4-[6-cyclopropyl-5-(3,6-dihydro-2H-pyran-4-yl)-7H-pyrrolo[2,3-c]pyridazin-3-yl]butyl}-N-{[3-(trifluoromethoxy)phenyl]methyl}-1H-1,2,3-triazole-4-carboxamide], the pIC50 in test [1] was > 7.00. For the same compound, the pEC50 in the test on A549 cells is > 7.00.

As to `Cc1ccc(CNC(=O)c2cn(CCCCc3cc4c(C5=CCOCC5)c(C5CC5)[nH]c4nn3)nn2)cn1` [Example 196, 1-{4-[6-cyclopropyl-5-(3,6-dihydro-2H-pyran-4-yl)-7H-pyrrolo[2,3-c]pyridazin-3-yl]butyl}-N-[(6-mcthylpyridin-3-yl)methyl]-1H-1,2,3-triazole-4-carboxamide], the pIC50 in test [1] is > 7.00. The same compound gave a negative-log EC50 (pEC50) in the test on A549 cells of 6.30 to 7.00.

In the case of `CC(C)(C)OC(=O)N1CC=C(c2c(C3CC3)[nH]c3nnc(CCCCn4cc(C(=O)NCc5cccc(OC(F)(F)F)c5)nn4)cc23)CC1` [Example 197, tert-butyl 4-(6-cyclopropyl-3-{4-[4-({[3-(trifluoromethoxy)phenyl]methyl}carbamoyl)-1H-1,2,3-triazol-1-yl]butyl}-7H-pyrrolo[2,3-c]pyridazin-5-yl)-1,2,3,6-tetrahydropyridine-1-carboxylate], the pIC50 in test [1] was > 7.00. Moreover, in the test with A549 cells, the pEC50 was > 7.00.

For the compound `Cc1ccc(CNC(=O)c2cn(CCCCc3cc4c(C5=CCN(C(=O)OC(C)(C)C)CC5)c(C5CC5)[nH]c4nn3)nn2)cn1` [Example 198, tert-butyl 4-(6-cyclopropyl-3-[4-(4-{[(6-methylpyridin-3-yl)methyl]carbamoyl}-1H-1,2,3-triazol-1-yl)butyl]-7H-pyrrolo[2,3-c]pyridazin-5-yl}-1,2,3,6-tetrahydropyridine-1-carboxylate], in test [1], the negative logarithm of the IC50 (pIC50) is > 7.00. Further, the pEC50 with A549 cells is 5.30 to 6.30.
